Data reported in patent US9079821B2, “Quinone based nitric oxide donating compounds” (NICOX S.A., priority 2011, dated 2015).
Like-named read-outs stand apart in the source and are kept apart here.

How the values were obtained:
[1] = test system: rat aorta, endothelial-dependent vasodilation (response to ACh); assay: Endothelial dysfunction evaluation (vascular response to acetylcholine after treatment); assay type: in vivo; conditions: for Emax at 100 mg/kg: Rattus norvegicus, response to ACh, read-out: % relaxation (Emax)
Protocol: (§1) Thoracic aortas from male New Zealand rabbits or male Sprague Dawley (SD) were used. The aortas were placed immediately in Krebs-HEPES buffer (pH 7.4; composition mM: NaCl 130.0, KCl 3.7, NaHCO3 14.9, KH2PO4 1.2, MgSO4.7H2O 1.2, Glucose 11.0, HEPES 10.0, CaCl2.2H2O 1.6). Connective tissue was removed and aortas were cut into ring segments (4-5 mm in length). Each ring was placed in a 5 mL tissue bath filled with Krebs-HEPES buffer (37° C.) aerated with 95% O2 and 5% CO2 and was attached to a force transducer (Grass FT03), connected to a BIOPAC MP150 System for measurement of the isometric tension. Preparations were allowed to equilibrate for 1 h at a resting tension of 2 g for rabbit aortas and 1 g for rat aortas with changes of the buffer every 15 min. Then the rings were stimulated by exposure to 90 mM KCl (3 times) with intervening washings.
Rat aorta. After equilibration, rat aortas were precontracted with KCl (90 mM) and, when the contraction was stable, a cumulative concentration-response curve to acetylcholine (ACh, 0.01-100 μM) was added. After washout, the rings were precontracted again with KCl (90 mM). When a steady-state level of contraction was obtained, a cumulative concentration-response curve to the tested compounds (0.01-100 μM) was obtained.
Data analysis. Results are given as mean±SEM. Vascular responses are expressed as percentage relaxation and plotted vs concentration. The sensitivity of isolated aorta to different vasodilators is expressed as the concentration that elicited 50% of the maximal responses (EC50). Responses are quantified in terms of EC50 and Emax (maximal vasodilating effect) values, obtained from the concentration-response curve by nonlinear curve fitting, using GraphPad software.
Endothelial-dependent vasodilation (vascular response to acetylcholine, ACh) was assessed following 5-day treatment with Compound (6) (100 mg/kg) or 5-ISMN (30 mg/kg). A relaxant response to ACh indicated the presence of a functional endothelium. The vascular response was performed as described in Example 6.

[2] = test system: rat L-NAME-induced hypertension; assay: Rat L-NAME-induced hypertension, systolic blood pressure after single oral dose; assay type: in vivo; conditions: for Delta vs basal (mmHg): Comp. (6) 100 mg/kg oral, L-NAME 50 mg/kg i.p.
Protocol: To assess the in vivo NO-dependent activity, Compound (6) was evaluated for systolic blood pressure (SBP) reduction efficacy in a rat model of NO-deprivation induced by L-NAME and compared with 5-ISMN.
Fasted male SD rats (250-300 g, n=3-5 per group), obtained from Harlan Italy (Correzzana, Milan, Italy) were orally treated with tested compounds or vehicle (DMSO:Methocel 1% 2/98 v/v) in a total volume of 4 ml/kg by gavage. At each time point (1, 3, 6 and 24 h) animals were deeply anesthetized with Zoletil® 100 (3 mg/kg), given intramuscularly. Thereafter, a pressure catheter (Samba Sensors, Harvard Apparatus, UK) was introduced into the common carotid artery for central blood pressure measurement. Pressure transducer was connected to a personal computer, in order to allow real time monitor of the pressure tracing. After 10 minutes of basal recording, L-NAME (50 mg/kg) was administered intraperitoneally and the effect on SBP monitored. When the SBP stabilized (5 minutes without variations) the recording was stopped. To further confirm that functional activity was NO-dependent, at each time point blood ^15N-nitrite levels were measured following the procedure described in Example 12.

[3] = test system: methoxamine-precontracted rabbit aortic rings; assay: In vitro NO-mediated vasorelaxation; assay type: cell-based
Protocol: The ability of compound (6) disclosed in example 1, to induce in vitro vasorelaxation, which is a functional marker of NO release, was assessed on methoxamine-precontracted rabbit aortic rings.
as §1
Rabbit aorta. […]
Data analysis. […] Vascular responses are expressed as percentage relaxation and plotted vs concentration. […] Responses are quantified in terms of EC50 and Emax (maximal vasodilating effect) values, obtained from the concentration-response curve by nonlinear curve fitting, using GraphPad software.

[4] = test system: NADPH-induced lipidic peroxidation of membrane lipids (hepatic microsomal membranes); assay: In vitro antioxidant activity (TBARS test), Method A (ADP-FeCl3 and NADPH); assay type: biochemical, rat; conditions: inhibition of TBARS production after 30 min incubation, read-out: Antioxidant activity IC50 μM (CL 95%)
Protocol: The antioxidant properties of compounds (6) (disclosed in example 1) and compound (23) (disclosed in example 19) and reference antioxidant compounds were assessed after NADPH-induced lipidic peroxidation of membrane lipids in rat hepatocytes using the detection of 2-thiobarbituric acid reactive substances (TBARS) by visible spectroscopy.
Hepatic microsomal membranes from male Wistar rats (200-250 g) were prepared by differential centrifugation (8000 g, 20 min; 120000 g, 1 h) in a HEPES/sucrose buffer (10 mM, 250 mM, pH 7.4) and stored at −80° C. Incubation was performed at 37° C. in a Tris-HCl/KCl (100 mM/150 mM, pH 7.4) containing microsomal membranes (2 mg prot/mL), sodium ascorbate (100 μM), and DMSO solutions of the tested compounds. Lipid peroxidation was initiated by adding ADP-FeCl3 and NADPH (Method A) or 2.5 μM FeSO4 (Method B) (as described by Boschi D. et al., J. Med. Chem. 2006, 49:2886-2897). Aliquots were taken from the incubation mixture at 5, 15, and 30 min and treated with trichloroacetic acid (TCA) 10% w/v. Lipid peroxidation was assessed by spectrophotometric (543 nm) determination of the TBARS consisting mainly of malondialdehyde (MDA). TBARS concentrations (expressed in nmol/mg protein) were obtained by interpolation with a MDA standard curve. The antioxidant activity of tested compounds was evaluated as the percent inhibition of TBARS production with respect to control samples, using the values obtained after 30 min of incubation. IC50 values were calculated by nonlinear regression analysis.

COC1=C(OC)C(=O)C(CCCCCCCCCCO[N+](=O)[O-])=C(C)C1=O [Compound (6), 10-(4,5-dimethoxy-2-methyl-3,6-dioxocyclohexa-1,4-dienyl)decyl nitrate]
effect on endothelial-dependent vasorelaxation, in words ([1]; Compound (6) 100 mg/kg, 5-day treatment): did not modify endothelial-dependent vasorelaxation
Emax at 100 mg/kg ([1]; 120 h, repeated (5-day) Comp. (6) 100 mg/kg): 84.3 ± 7.5%
Emax at 100 mg/kg ([1]; acute, Comp. (6) 100 mg/kg): 89.6 ± 4.5%
Delta vs basal (mmHg) ([2]; 1 hour): 53.5 ± 4.5 mmHg
Delta vs basal (mmHg) ([2]; 3 hours): 14 ± 3.8 mmHg
Delta vs basal (mmHg) ([2]; 6 hours): 38 ± 3.6 mmHg
Delta vs basal (mmHg) ([2]; 24 hours): 67.7 ± 16.8 mmHg
time over which L-NAME induced SBP increase was prevented after treatment ([2]; Compound (6) 100 mg/kg, single oral administration): 6 h
relaxation at the highest concentration tested ([3]; 100 μM): 89±1%
EC50 ([3]; Oryctolagus cuniculus, methoxamine (3 μM) precontracted, functional endothelium, read-out: EC50 (concentration-dependent relaxation)): 4.7 ± 0.2 µM
IC50 [4]: 2 µM
